One assay has as its target G-actin (Oryctolagus cuniculus, UniProt P68135). Kind of assay: Steady-state anisotropy of Alexa488NHS-labeled G-actin with PACAP. Format: binding, rabbit. To be noted: 0.2 µM A488NHS-labeled G-actin; PACAP 0 to 5 µM; 50 mM KCl, 1 mM MgCl2, 4 μM LatA, 1 mM EGTA, G-buffer pH 7.8; 20 °C; ex 488 nm; mean ± SD, at least three independent experiments; read-out: dissociation equilibrium constant (KD), in Figure 3. The procedure: Actin was prepared from acetone-dried muscle powder from rabbit skeletal muscle according to the method of Spudich and Watt modified by Mossakowska et al.. Shortly, the acetone-dried powder was extracted in G-buffer (4 mM TRIS (Sigma-Aldrich, Saint Louis, MO, USA), 0.1 mM CaCl2 (Sigma-Aldrich, Saint Louis, MO, USA), 0.2 mM ATP (VWR International LLC, Radnor, PA, USA), 0.5 mM DTT (VWR International LLC, Radnor, PA, USA), pH 7.8), mixed on ice with a magnetic stirrer (30 min, 80 rpm). The mixture was filtered through quadruple-layered gauze, supplemented with additional G-buffer, mixed further (40 min, 80 rpm), filtered again, and centrifuged (30,000 rpm, 4 °C, 30 min). […] After clarification centrifugation (80,000 rpm, 30 min, 4 °C), the supernatant was removed and actin absorbance was measured using a spectrophotometer to determine its concentration. […]
For our investigation, we utilized A488NHS green-fluorescent dye, which remains stable between pH 4 and 10, with peak emission when excited at 488 nm. […] In vitro anisotropy and fluorescence emission measurements involved 0.2 µM Alexa488NHS-Mg^2+-ATP-G-actin (Alexa488NHS labeled G-actin) with varying PACAP concentrations. […] The cuvette (Hellma® fluorescence, ultra Micro, Suprasil® quartz, spectral range 200–2500 nm) had optical path lengths of ex = 10 mm/em = 2 mm. […]

Assay [1] concerns Ca^2+-G actin and Ca^2+-F actin. To be noted: DSC; ref [81],[82]; cited from earlier work. The text has this:
In previous investigations, we employed differential scanning calorimetry (DSC) to explore the impact of various PACAP fragments on the thermal stability of Ca^2+-G actin and Ca^2+-F actin.

Another assay has as its system Ca^2+-F-actin. The arrangement: method as in doi:10.1007/s10973-024-13286-2, doi:10.1007/s10973-024-13289-z. To be noted: DSC; ref [81],[82]; cited from earlier work. For orientation: Differential scanning calorimetry records heat flow against a reference as temperature is scanned.
A further assay has as its system astrocyte. To be noted: by increasing cAMP levels; ref [57]; cited from earlier work. The source says:
The polymerization of G-actin into filamentous actin (F-actin) is essential for maintaining cellular structural integrity and supporting dynamic processes. Actin filaments, which form the cell’s cytoskeleton, provide mechanical strength and stability. The F-actin network supports various cellular functions, including cell migration, division, and intracellular transport, by continuously polymerizing and depolymerizing. The dynamic nature of F-actin allows cells to adapt to environmental changes and respond to signals, interacting with regulatory proteins to influence membrane protr ...
In general terms: Changes in cAMP serve as a functional read-out for many G protein-coupled receptors.

In assay [2] the test system is dihydropyrimidinase like 2 (DPYL2). To be noted: ischemic brain tissue; ref [43],[44]; cited from earlier work. The text has this:
(§1) PACAP synergizes with multiple factors to promote neurite growth in different cell lines. It works with nerve growth factor (NGF) and VIP to stimulate neuritogenesis, increasing neurite length and branching, similar to brain-derived neurotrophic factor (BDNF). […] In traumatic central nervous system (CNS) injuries, PACAP has cytoprotective and antiapoptotic effects. It increases dihydropyrimidinase li ...

In assay [3] the test system is neurite growth in different cell lines. To be noted: ref [40],[41],[42]; cited from earlier work.
Excerpt: as §1

Assay [4] has as its system traumatic brain injury (TBI). To be noted: intracerebroventricular (icv); brain regions such as corticospinal tract and medial longitudinal fasciculus; ref [45],[46]; cited from earlier work.
Excerpt: as §1

A further assay concerns Tau. To be noted: ref [1],[79]; cited from earlier work. The text has this:
(§2) As mentioned above, PACAP plays a significant role in mitigating neuronal damage and promoting cell survival. […] The misfolding and aggregation of proteins such as Tau are hallmarks of neurodegenerative diseases like Alzheimer’s.

A further assay deals with caspase-3. To be noted: ref [1],[79]; cited from earlier work.
Excerpt: as §2

For assay [5], the system named is adenylate cyclase, rat pituitary cells. To be noted: versus VIP, ref [2]; cited from earlier work. The text has this:
Pituitary adenylate cyclase-activating polypeptide (PACAP) was first isolated from the sheep hypothalamus in 1989 [1, 2]. It belongs to the vasoactive intestinal peptide (VIP)/glucagon/secretin peptide family, sharing 68% structural homology with VIP, but stimulating adenylate cyclase activity 1000 times more effectively in rat pituitary cells. PACAP plays crucial roles in the nervous and endocrine systems, acting as a hormone, neurotransmitter, vasodilator, and neuromodulator, and potentially having neurotrophic or neuroprotective functions. PACAP exists in two biologically ...

Assay [6] deals with streptozotocin-induced diabetes model. Also noted: method as in PMID 34639032. To be noted: ref [76]; cited from earlier work.
Another assay has as its system PAC1 receptor. To be noted: ref [7],[8]; cited from earlier work. The source says: PACAP can bind to VPAC1 (VIP receptor type 1) and VPAC2 (VIP receptor […]) receptors, which also bind VIP, due to their structural similarity. […] The high specificity of PAC1 receptors for PACAP makes them ideal for studying PACAP–receptor interactions. PAC1 receptors, being GS protein-coupled receptors (GPCRs ...

Ends that are not written are not given here.

Consider `CSCC[C@H](NC(=O)[C@H](CCC(N)=O)NC(=O)[C@H](CCCCN)NC(=O)[C@H](CCCNC(=N)N)NC(=O)[C@H](Cc1ccc(O)cc1)NC(=O)[C@H](CCCNC(=N)N)NC(=O)[C@H](CO)NC(=O)[C@H](Cc1ccc(O)cc1)NC(=O)[C@H](CO)NC(=O)[C@H](CC(=O)O)NC(=O)[C@@H](NC(=O)[C@@H](N)Cc1ccccc1)[C@@H](C)O)C(=O)N[C@@H](C)C(=O)N[C@H](C(=O)N[C@@H](CCCCN)C(=O)N[C@@H](CCCCN)C(=O)N[C@@H](Cc1ccc(O)cc1)C(=O)N[C@@H](CC(C)C)C(=O)N[C@@H](C)C(=O)N[C@@H](C)C(=O)N[C@H](C(=O)N[C@@H](CC(C)C)C(=O)NCC(=O)N[C@@H](CCCCN)C(=O)N[C@@H](CCCNC(=N)N)C(=O)N[C@@H](Cc1ccc(O)cc1)C(=O)N[C@@H](CCCCN)C(=O)N[C@@H](CCC(N)=O)C(=O)N[C@@H](CCCNC(=N)N)C(=O)N[C@H](C(=O)N[C@@H](CCCCN)C(=O)N[C@@H](CC(N)=O)C(=O)N[C@@H](CCCCN)C(N)=O)C(C)C)C(C)C)C(C)C` [PACAP6-38], for which the Kd at G-actin turned out to be 150.46 ± 0.03 nM.

Consider `CC[C@H](C)[C@H](NC(=O)CNC(=O)[C@H](CC(=O)O)NC(=O)[C@H](CO)NC(=O)[C@@H](N)Cc1cnc[nH]1)C(=O)N[C@@H](Cc1ccccc1)C(=O)N[C@H](C(=O)N[C@@H](CC(=O)O)C(=O)N[C@@H](CO)C(=O)N[C@@H](Cc1ccc(O)cc1)C(=O)N[C@@H](CO)C(=O)N[C@@H](CCCNC(=N)N)C(=O)N[C@@H](Cc1ccc(O)cc1)C(=O)N[C@@H](CCCNC(=N)N)C(=O)N[C@@H](CCCCN)C(=O)N[C@@H](CCC(N)=O)C(=O)N[C@@H](CCSC)C(=O)N[C@@H](C)C(=O)N[C@H](C(=O)N[C@@H](CCCCN)C(=O)N[C@@H](CCCCN)C(=O)N[C@@H](Cc1ccc(O)cc1)C(=O)N[C@@H](CC(C)C)C(=O)N[C@@H](C)C(=O)N[C@@H](C)C(=O)N[C@H](C(=O)N[C@@H](CC(C)C)C(=O)NCC(=O)N[C@@H](CCCCN)C(=O)N[C@@H](CCCNC(=N)N)C(=O)N[C@@H](Cc1ccc(O)cc1)C(=O)N[C@@H](CCCCN)C(=O)N[C@@H](CCC(N)=O)C(=O)N[C@@H](CCCNC(=N)N)C(=O)N[C@H](C(=O)N[C@@H](CCCCN)C(=O)N[C@@H](CC(N)=O)C(=O)N[C@@H](CCCCN)C(N)=O)C(C)C)C(C)C)C(C)C)[C@@H](C)O` [PACAP38, Pituitary adenylate cyclase-activating polypeptide 38], for which, at G-actin, the Kd came to 97.22 ± 0.01 nM.

“PACAP6-27: PACAP fragment examined by DSC in earlier studies (FTDSYSRYRKQMAVKKYLAAVL; ends and bridges not checked; UniProt P18509 137-158, looked up, fragment)”: the “effect on thermal properties of actin (in words)” value in assay [1] is listed as “altered the thermal stability of actin, albeit to a lesser degree”. The “denaturation temperature of Ca2+-F-actin compared with control (in words)” value with Ca^2+-F-actin was “did not show significant changes”.

On to “Pituitary adenylate cyclase-activating polypeptide [PACAP]”, for which the “effect on actomyosin stress fibers (in words)” value in the assay on astrocyte is “promotes actomyosin stress fiber depolymerization”. In addition, in assay [2], the “effect on DPYL2 protein levels (in words)” value is “increases dihydropyrimidinase like 2 (DPYL2) protein levels in ischemic brain tissue”. Also, the “effect on axon growth / neurite growth (in words)” value in assay [3] was “enhances axon length and cell body size but does not affect dendrite length”. In assay [4], the “effect on axonal swellings and amyloid plaque accumulation (in words)” value was “reduces axonal swellings and amyloid plaque accumulation”. In addition, the “effect on Tau phosphorylation (in words)” value in the assay on Tau was “enhances Tau phosphorylation and prevents its dephosphorylation”. Further, the “effect on caspase-3 activity (in words)” value with caspase-3 is given as “inhibits caspase-3 activity”. Also, in assay [5], the “stimulation of adenylate cyclase activity relative to VIP” value is 1000 times. Also, the “effect on morphological signs of nerve injury and hyperalgesia (in words)” value in assay [6] was “reduced morphological signs of nerve injury (axon–myelin separation, elevated mitochondrial number in myelinated axons, unmyelinated fiber atrophy, and basement membrane thickening of endoneurial vessels) while also attenuating pressure and touch hyperalgesia”.

vasoactive intestinal peptide [VIP]: the “binding to PAC1 receptor (in words)” value in the assay on PAC1 receptor was “low affinity”.

What is called Kd is the free concentration of one partner at which half of the binding sites on the other are occupied at equilibrium, for simple one-to-one binding.
